Source: patent publication US4325947A (priority 1981, dated 1982)
In brackets after ≈: the same amount, converted by molar mass. Several values for one entry are separate records, joined by “and”; a condition that tells them apart may be missing. Identical values can stand only once. Like-named read-outs stand apart in the source and are kept apart here.

What was measured:
P388 ascitic leukemia = test: Activity against P388 ascitic leukemia in mice, ip
Procedure: Activity against P388 ascitic leukemia^1
^1 Mice were injected ip with 10^6 leukemia cells/mouse. Data of
^2 Treatment ip on day 1 after tumor inoculum.
(§1) ^3 Medium survival time of treated animals/medium survival time of […]

L1210 leukemia = system: L1210 leukemia
Excerpt: as §1

Gross leukemia = test: Activity against disseminated Gross leukemia in mice, i.v. and oral; conditions: for T/C % (survival time treated/controls × 100) / Toxic deaths: day 1
Excerpt: as §1

HeLa cells = HeLa cells cloning efficiency in vitro, treatment for 24 hours; conditions: for IC50: read-out: ID50
experimental leukemias = test: In vivo antitumor activity/potency versus doxorubicin (general statements); set-up: species or system mice
Excerpt: In vivo the compound has been compared to doxorubicin against three different experimental leukemias of mice.

[1] = Homo sapiens, HeLa, 24 h, read-out: % of controls (HeLa cells cloning efficiency)

## COc1cccc2c1C(=O)c1c(O)c3c(c(O)c1C2=O)C[C@@](O)(C(=O)CO)C[C@@H]3O[C@H]1C[C@H](N)[C@H](O)[C@H](C)O1 [Doxorubicin, doxorubicin, reference compound]
P388 ascitic leukemia; 4.4 mg/kg ip on day 1
  T/C % (survival time treated/controls × 100): 210% and 180%
  Toxic deaths: 0/16
P388 ascitic leukemia; 6.6 mg/kg ip on day 1
  T/C % (survival time treated/controls × 100): 220% and 190%
  Toxic deaths: 0/16
P388 ascitic leukemia; 10.0 mg/kg ip on day 1
  T/C % (survival time treated/controls × 100): 225% and 220%
  Toxic deaths: 0/16
L1210 leukemia; 10 mg/kg iv on day 1
  T/C % (survival time treated/controls × 100): 133%
  Toxic deaths: 0/10
L1210 leukemia; 13 mg/kg iv on day 1
  T/C % (survival time treated/controls × 100): 150%
  Toxic deaths: 0/9
L1210 leukemia; 16.9 mg/kg iv on day 1
  T/C % (survival time treated/controls × 100): 166%
  Toxic deaths: 1/10
Gross leukemia; i.v. 13 mg/kg
  T/C % (survival time treated/controls × 100): 200%
  Toxic deaths: 0/18
Gross leukemia; i.v. 16.9 mg/kg
  Toxic deaths: 0/18
Gross leukemia; i.v. 16.9 mg/kg, 16.9 mg/kg
  T/C % (survival time treated/controls × 100): 233% and 216%
HeLa cells; [1]
  activity at 0.0031 µg/mL: 102%
  activity at 0.0062 µg/mL: 68%
  activity at 0.0125 µg/mL: 44%
HeLa cells; Homo sapiens, HeLa, 24 h
  IC50: ~10 ng/mL (≈ 18.4 nM)

## C[C@H]1C[C@@H](N)C[C@H](O[C@H]2C[C@](O)(C(=O)CO)Cc3c(O)c4c(c(O)c32)C(=O)c2ccccc2C4=O)O1 [XOO-0144, 4-demethoxy-4'-deoxydoxorubicin]
P388 ascitic leukemia; 0.04 mg/kg ip on day 1
  T/C % (survival time treated/controls × 100): 130%
P388 ascitic leukemia; 0.12 mg/kg ip on day 1
  T/C % (survival time treated/controls × 100): 170%
P388 ascitic leukemia; 0.25 mg/kg ip on day 1
  T/C % (survival time treated/controls × 100): 205% and 195%
P388 ascitic leukemia; 0.5 mg/kg ip on day 1
  T/C % (survival time treated/controls × 100): 235%
P388 ascitic leukemia; 1 mg/kg ip on day 1
  T/C % (survival time treated/controls × 100): 75% and 90%
  Toxic deaths: 7/16
P388 ascitic leukemia; 5 mg/kg ip on day 1
  T/C % (survival time treated/controls × 100): 55%
  Toxic deaths: 8/8
P388 ascitic leukemia; administered ip
  optimal doses: 0.25 to 0.5 mg/kg
P388 ascitic leukemia; administered ip, mice bearing P388 ascitic leukemia
  potency relative to doxorubicin, ip: 10-20 times
P388 ascitic leukemia; ip, 0.25-0.5 mg/kg vs doxorubicin from 4 to 10 mg/kg
  antitumor activity compared with doxorubicin: antitumor activity of the same order of magnitude as that of doxorubicin
L1210 leukemia; 0.9 mg/kg iv on day 1
  T/C % (survival time treated/controls × 100): 183%
  Toxic deaths: 0/10
L1210 leukemia; 1.2 mg/kg iv on day 1
  T/C % (survival time treated/controls × 100): 191%
  Toxic deaths: 0/10
L1210 leukemia; 1.56 mg/kg iv on day 1
  T/C % (survival time treated/controls × 100): 116%
  Toxic deaths: 6/10
L1210 leukemia; in comparison with doxorubicin
  activity against L1210 leukemia in comparison with doxorubicin (summary, words): more active against L1210 leukemia
L1210 leukemia; iv
  tolerated doses: 0.9 mg/kg and 1.2 mg/kg
L1210 leukemia; iv, tolerated doses 0.9 and 1.2 mg/kg vs doxorubicin 13 mg/kg
  effectiveness compared with doxorubicin: more effective than doxorubicin
Gross leukemia; i.v. 0.35 mg/kg
  T/C % (survival time treated/controls × 100): 100%
  Toxic deaths: 0/8
Gross leukemia; i.v. 0.53 mg/kg
  T/C % (survival time treated/controls × 100): 108%
  Toxic deaths: 0/8
Gross leukemia; i.v. 0.8 mg/kg
  T/C % (survival time treated/controls × 100): 116%
  Toxic deaths: 0/10
Gross leukemia; i.v. 1.2 mg/kg
  Toxic deaths: 0/20
Gross leukemia; i.v. 1.2 mg/kg, 1.2 mg/kg
  T/C % (survival time treated/controls × 100): 150% and 208%
Gross leukemia; i.v. 1.8 mg/kg
  T/C % (survival time treated/controls × 100): 133%
  Toxic deaths: 9/10
Gross leukemia; i.v. 2.7 mg/kg
  T/C % (survival time treated/controls × 100): 116%
  Toxic deaths: 10/10
Gross leukemia; oral 2.7 mg/kg
  T/C % (survival time treated/controls × 100): 150%
  Toxic deaths: 1/8
Gross leukemia; oral 5.4 mg/kg
  T/C % (survival time treated/controls × 100): 133%
  Toxic deaths: 4/6
Gross leukemia; oral 10.8 mg/kg
  T/C % (survival time treated/controls × 100): 100%
  Toxic deaths: 5/5
Gross leukemia; oral, Gross leukemia
  activity by oral route: active also when given by oral route
Experimental leukemias; administered iv
  potency relative to doxorubicin, iv: about 10 times
Experimental leukemias; both i.p. and i.v. administration
  potency in vivo in comparison with doxorubicin (summary, words): more potent in vivo (both i.p. and i.v. administration)
Experimental leukemias; in vivo, with reference to doxorubicin
  potency in vivo relative to doxorubicin: about 10 times
Experimental leukemias
  activity by oral route: active also when administered orally
Experimental leukemias; listed as 4-demethoxy-4'-deoxydoxorubicin
  activity by oral route: active also when given by oral route
HeLa cells; HeLa cells cloning efficiency, more cytotoxic than doxorubicin
  cytotoxicity relative to doxorubicin: about 25 times
HeLa cells; [1]
  activity at 20 pg/mL: 102%
  activity at 90 pg/mL: 72%
  activity at 0.00039 µg/mL: 69%
  activity at 0.0015 µg/mL: 26%
  activity at 0.0062 µg/mL: 1%
  activity at 0.025 µg/mL: 0%
HeLa cells; Homo sapiens, HeLa, 24 h
  IC50: ~0.4 ng/mL (≈ 0.804 nM)
HeLa cells; in comparison with doxorubicin
  potency in vitro in comparison with doxorubicin (summary, words): more potent in vitro
HeLa cells; in vitro, with reference to doxorubicin
  potency in vitro relative to doxorubicin: 10-20 times
